How the values were obtained:
Phytophthora infestan = assay type: in vivo, potato plants (strain Bintje)
Experimental: (§1) Solutions of boric acid in water were prepared containing different concentrations of boric acid: 1%, 0.1%, 0.03%, 0.01%, 0.005%, 0.0003% and 0.0001% (W/V). Sodium silicate (10% Si) was diluted tenfold in water and further 1000 times diluted in the solutions or in water with pH 4.5 after dilution, resulting in a final silicon concentration of 0.0010 wt. % (or 10 μg/ml Si)
(§2) All solutions were filtered on a 0.1μ membrane filter. […] The solutions were used instantaneously. A potato garden was used to test the compounds against infection with Phytophthora infestan: 20 m^2 culture were used for testing and each m^2 contained 6 potato plants (strain Bintje) of two months old. Two times a week plant leaves were sprayed with the different solutions (about 10 liters/are). Four square meters were used as placebo.

[1] = system: potato plants (strain Bintje)
Experimental: as §1, §2

OB(O)O [boric acid]
antifungal effect (Phytophthora infestan; 1%, 0.1% and 0.03% boric acid): no antifungal effect | fungal infection (Phytophthora infestan; From 0.003% boric acid on): fungal infection decreased | toxic reactions (necrotic effects on leaves such as black spots, holes) ([1]; 1%, 0.1% and 0.03% boric acid, after 1 week treatment): toxic reactions | strength of plant leaves ([1]; From 0.003% boric acid on): plant leaves were stronger

— patent US7915198B2, “Aqueous solution of non-colloidal silicic acid and boric acid” (Sabalo, N.V., priority 2002, dated 2011)
